One experiment has as its system MCF7. Kind of experiment: Growth inhibition of human MCF7 cells. Type of experiment: functional.
The next experiment relates to P388. Kind of experiment: Growth inhibition of mouse P388 cells. Type of experiment: functional.

Three compounds from ChEMBL document CHEMBL1146237, “Antineoplastic agents. 561. Total synthesis of respirantin” (2007) can be followed below.

Values after ≈ are worked out from the molar mass of the structure shown.

Take `CCC(C)[C@@H]1OC(=O)[C@H](C)OC(=O)[C@@H](NC(=O)c2cccc(NC=O)c2O)[C@@H](C)OC(=O)[C@H](C(C)C)OC(=O)C(C)(C)C(=O)[C@H](CC(C)C)NC1=O` (some centres undefined): the 50% growth inhibitory concentration (GI50) in the experiment with MCF7 was determined as 0.00062 µg/mL (≈ 0.000845 µM); in the experiment with P388 it was 0.033 µg/mL (≈ 0.045 µM). The compound `CCC(C)[C@@H]1OC(=O)[C@H](C)OC(=O)[C@@H](NC(=O)c2cccc(N)c2O)[C@@H](C)OC(=O)[C@H](CC(C)C)OC(=O)C(C)(C)C(=O)[C@H](CC(C)C)NC1=O` (some centres undefined) [KITASTATIN] had a GI50 with P388 of 0.045 µg/mL (≈ 0.0625 µM). The same measure, in the same setting: the result for `CCC(C)[C@@H]1OC(=O)[C@H](C)OC(=O)[C@@H](NC(=O)c2cccc(NC=O)c2O)[C@@H](C)OC(=O)[C@H](CC(C)C)OC(=O)C(C)(C)C(=O)[C@H](CC(C)C)NC1=O` (some centres undefined) [RESPIRANTIN] reads 0.0037 µg/mL (≈ 0.00495 µM).

For orientation: GI50 means the concentration giving 50% growth inhibition. A lower GI50 goes with greater sensitivity of the cells.
